# Non-standard residues stand in square brackets, D forms with d. No end group written: not given here. *: point of attachment. FITC = O=C1OC2(c3ccc(O)cc3Oc3cc(O)ccc32)c2ccc(NC(=S)*)cc21; Ahx = NCCCCCC(=O)O
# Experiments:
# HT-1080 cells = assay: Test on nuclear transport (confocal, DAPI); type: cell-based, human; conditions: 50 μg/mL; for intracellular localization: HT-1080 cells
# Source text: (§1) Human fibrosarcoma-derived HT-1080 cells (HT-1080 cells, JCRB cell bank) were used as cancer cells in the test for monitoring changes in mitochondrial membrane potential. HT-1080 cells, human osteosarcoma cell line Hos cells (Hos cells, JCRB cell bank), human histiocytic lymphoma/macrophage U937 cells (U937 cells, JCRB cell bank), human myeloid leukemia HL-60 cells (HL-60 cells, JCRB cell bank), acute monocytic leukemia THP-1 cells (THP-1 cells, JCRB cell bank), human alveolar basal epithelial adenocarcinoma cell A549 cells (A549 cells, Cell Resource Center for Biomedical Research, Institute of Development, Aging and Cancer, Tohoku University), human pancreatic carcinoma cells (MIA Paca 2 cells, Cell Resource Center for Biomedical Research, Institute of Development, Aging and Cancer, Tohoku University) and well differentiated human liver carcinoma-derived cell line HuH7 cells (HuH7 cells, Cell Resource Center for Biomedical Research, Institute of Development, Aging and Cancer, Tohoku University) were used as cancer cells in an in vitro cell-death induction test of cancer cells and a nuclear transport test of Example 2. Normal human gingival fibroblast cells Gin-1 (Gin-1 cells, DS Pharma Biomedical) were used as a control. The above-described cells were each inoculated into a 96-well culture plate (Falcon) at 5,000 cells/[…] and subjected to the following tests.
# The cells were cultured in 200 μL of serum-supplemented medium (α-MEM+10% FBS) to be 50 μg/mL at the final concentration of Example 2 for 3 or 9 days. The cell-death was not detected in the culture on day 3. On the contrary, since the cell-death was detected in the culture on day 9, the day 9 culture as described above was used for the tests. The above each cell was separated and transferred to a Cellview glass bottom dish (35×10 mm) (Greiner). The cells on day 3 were fixed with 10% formalin-ethanol and then dyed with DAPI. The cells on day 9 were dyed with DAPI without fixation.
# FIG. 4 is the photographs of Example 2 (green), DAPI (blue), overlay images of Example 2 (green) and DAPI (blue) and differential interference image on the HT-1080 cells on day 3 or 9.
# Hos cells = assay: Test on nuclear transport (confocal Z scan, DAPI); type: cell-based, human; conditions: 50 μg/mL, 9 days
# Source text: as §1
# (§2) Further, 50 μg/mL of Example 2 was added to the Gin-1 or above cancer cells. The cells were cultured for 9 days and scanned with Z scan technique using the confocal laser scanning microscope LSM800 after dyed with DAPI. FIG. 5A is each photograph of XY, XZ and YZ cross sections that was merged with Example 2 (green) and DAPI (blue) in the Gin-1 or above-described cancer cells. […] The color of the images merged with the Example 2 and DAPI dye took on light blue in the U937, H1-60, THP-1 and Hos cells.
# THP-1 cells = assay: Test on nuclear transport (confocal Z scan, DAPI); type: cell-based, human; conditions: 50 μg/mL, 9 days
# Source text: as §1, §2
# U937 cells = assay: Test on nuclear transport (confocal Z scan, DAPI); type: cell-based, human; conditions: 50 μg/mL, 9 days
# Source text: as §1, §2
# HL-60 cells = assay: Test on nuclear transport (confocal Z scan, DAPI); type: cell-based, human; conditions: H1-60 cells, 50 μg/mL, 9 days
# Source text: as §1, §2
# Gin-1 cells = assay: Test on nuclear transport (confocal Z scan, DAPI); type: cell-based, human; conditions: 50 μg/mL, 9 days
# Source text: as §1, §2
# CD13 on Gin-1 cells = target: T1, CD13 on Gin-1 cells (Homo sapiens, UniProt P15144); assay: Binding test to cell membrane (confocal, CD13 co-staining); type: cell-based; conditions: 1 μg/100 μL, 4° C., 1 hour
# T1 construct: endogenous in cells; host or cells: Gin-1 cells
# T1 sequence (P15144 whole entry): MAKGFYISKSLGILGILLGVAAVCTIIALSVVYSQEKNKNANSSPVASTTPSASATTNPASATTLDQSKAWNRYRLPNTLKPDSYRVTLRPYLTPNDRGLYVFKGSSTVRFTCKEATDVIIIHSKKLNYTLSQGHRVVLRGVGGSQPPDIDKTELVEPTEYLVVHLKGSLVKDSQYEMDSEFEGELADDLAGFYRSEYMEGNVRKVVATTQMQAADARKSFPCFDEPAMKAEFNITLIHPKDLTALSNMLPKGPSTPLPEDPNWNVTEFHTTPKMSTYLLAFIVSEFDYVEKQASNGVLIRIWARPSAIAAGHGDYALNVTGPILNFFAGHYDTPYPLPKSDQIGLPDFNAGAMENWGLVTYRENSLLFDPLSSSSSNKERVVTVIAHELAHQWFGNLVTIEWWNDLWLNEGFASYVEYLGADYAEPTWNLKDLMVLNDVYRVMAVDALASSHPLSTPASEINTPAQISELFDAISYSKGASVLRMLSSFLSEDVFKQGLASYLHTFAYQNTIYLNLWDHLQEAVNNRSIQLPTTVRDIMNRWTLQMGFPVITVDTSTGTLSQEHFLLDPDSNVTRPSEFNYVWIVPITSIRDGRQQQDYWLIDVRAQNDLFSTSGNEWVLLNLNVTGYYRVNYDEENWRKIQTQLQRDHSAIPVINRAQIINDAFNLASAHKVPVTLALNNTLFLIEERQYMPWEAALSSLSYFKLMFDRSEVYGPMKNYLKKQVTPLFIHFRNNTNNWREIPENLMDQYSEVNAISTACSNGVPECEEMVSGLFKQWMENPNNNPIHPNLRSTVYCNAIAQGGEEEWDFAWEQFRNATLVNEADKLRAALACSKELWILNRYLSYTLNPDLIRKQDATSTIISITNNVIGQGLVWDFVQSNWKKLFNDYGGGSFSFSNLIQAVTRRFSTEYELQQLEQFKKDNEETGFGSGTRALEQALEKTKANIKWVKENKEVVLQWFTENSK
# Description: (§3) A PE-labeled human CD13 antibody (Clone: WM-15 Biolegend) ([…]) and Example 2 (1 μg/100 μL) were added to each of the cells (500,000 cells/[…]), and the cells were stained at 4° C. for 1 hour. After the cells were washed with PBS, CD13 expression of each cell and binding site of Example 2 were observed as the standard of the fluorescence intensity of the HT-1080 cells using the confocal laser scanning microscope LSM800. The expression of CD13 (red) was strongest and the luminescence of Example 2 (green) was also strong in the HT-1080 and Gin-1 cells. […] Further, the same phenomenon about CD13 expression was also recognized in the U937, HL-60, THP-1 and Hos cells (not shown).
# CD13 on HT-1080 cells = target: T2, CD13 on HT-1080 cells (Homo sapiens, UniProt P15144); assay: as above; type: cell-based; conditions: 1 μg/100 μL, 4° C., 1 hour
# T2 construct: endogenous in cells; host or cells: HT-1080 cells
# T2 sequence (P15144 whole entry): as above
# Description: as §3
# A549 cells = assay: Test of inducing cell-death in vitro (Calcein-AM/PI dead cell rate); type: cell-based, human; conditions: for dead cell rate: 50 μg/mL
# Source text: as §1
# (§4) The peptide of SEQ ID NO: 1 labeled with FITC (Example 2) was used for the test of inducing cell-death in vitro in cancer cells. It was prepared the test example to which 100 μL of Example 2 and further 10% FBS were added and cultured for 9 days under conditions of 200 μL of serum-supplemented medium (Alpha modification of Eagle's MEM (α-MEM) (Thermo Fisher Scientific)+10% FBS). Furthermore, it was also produced the test example that was cultured for 21 days with the whole amount of Example 2-supplemented medium replaced every 7 days. As a control, the cells were cultured in a serum-supplemented medium (α-MEM+10% FBS) without addition and were used. A supernatant was removed after the completion of the culture. The cells were washed once with PBS and stained in PBS to which a fluorescent dye for living cell staining Calcein-AM (DOJINDO LABORATORIES) (final concentration: 0.1 μg/mL) and a fluorescent dye for dead cell staining Propidium Iodide (PI) (DOJINDO LABORATORIES) (final concentration: 0.3 μg/mL) were added, at 37° C. in a 5% CO2 cell incubator for 30 minutes. The living cells and dead cells were separately stained with Calcein-AM and PI, respectively and imaged with the confocal laser scanning microscope LSM800. Next, the dead cell rate relative to the number of total cells was analyzed using ImageJ.
# (§5) The amount of administration of Example 2 was adjusted to 50 μg/mL and was used for 9-, 16- or 23-day administration test in the A549, MIA Paca2 or HuH7 cells by the same method as in Test Example 2A above. The cell staining and subsequent analyses of the dead cell rate relative to the number of total cells were performed in the same manner as Test Example 2A above.
# MIA Paca2 cells = assay: as above; type: cell-based, human; conditions: for dead cell rate: 50 μg/mL
# Source text: as §1, §4, §5
# HuH7 cells = assay: as above; type: cell-based, human
# Source text: as §1, §4, §5
substance,measurement,setting,value
"Example 2: peptide of SEQ ID NO: 1 labeled with FITC, bound via an Ahx linker at the N-terminus ({FITC}-[Ahx]KDNRGNLLQCVCTGNGRGEWKC; cysteine pairing not given here)",cell-death in the culture,HT-1080 cells; day 3,not detected
same,cell-death in the culture,HT-1080 cells; day 9,detected
same,intracellular localization,HT-1080 cells; day 3,present at a cytoplasm
same,intracellular localization,HT-1080 cells; day 9,transferred to a nucleus and bound to a chromosome DNA
same,intracellular localization,Hos cells,transfer to a nucleus and bind to a chromosome DNA
same,intracellular localization,THP-1 cells,transfer to a nucleus and bind to a chromosome DNA
same,intracellular localization,U937 cells,transfer to a nucleus and bind to a chromosome DNA
same,intracellular localization,HL-60 cells,transfer to a nucleus and bind to a chromosome DNA
same,intracellular localization,Gin-1 cells,remain still in the cytoplasm
same,colocalization with CD13 (overlay images),CD13 on Gin-1 cells,colocalized
same,luminescence of the peptide (green) on cells,CD13 on Gin-1 cells,strong
same,colocalization with CD13 (overlay images),CD13 on HT-1080 cells,colocalized
same,luminescence of the peptide (green) on cells,CD13 on HT-1080 cells,strong
same,increase in the dead cell rate vs control,"A549 cells; 50 μg/mL, 9, 16 or 23 days",significant difference was recognized at the level of 1%
same,dead cell rate,A549 cells; day 9,~50%
same,dead cell rate,A549 cells; day 16,~60%
same,dead cell rate,A549 cells; day 21,≥ 80%
same,increase in the dead cell rate vs control,"MIA Paca2 cells; 50 μg/mL, 9, 16 or 23 days",significant difference was recognized at the level of 1%
same,dead cell rate,MIA Paca2 cells; day 9,about 10%
same,dead cell rate,MIA Paca2 cells; day 16,~50%
same,dead cell rate,MIA Paca2 cells; day 23,about 80%
same,effect of administration (dead cell rate) on day 9 compared with later days,HuH7 cells; 50 μg/mL,substantially same as that of days 16 and 23
same,increase in the dead cell rate vs control,"HuH7 cells; 50 μg/mL, 9, 16 or 23 days",significant difference was recognized at the level of 1%
